Values after ≈ are worked out from the molar mass of the structure shown. Values belong to the molecule of their own block, whether it stands above or below them.
Tests used:
NCI-H460 = test: Antiproliferative activity against the human non small cell lung carcinoma cell line NCI-H460; assay type: functional, cell-based
HCT-15 [1] = test: Antiproliferative activity against the MDR positive human colon adenocarcinoma cell line HCT-15; assay type: functional, cell-based
[2] = Half life period in monkey after 5 mg/kg dose; assay type: ADME, organism-based; parameters: dose 5 mg/kg; details: cercopithecidae, in vivo
Mus musculus [3] = test: Increase in life span of M5076 murine ovarian sarcoma bearing mice at a dose of 50 mg/Kg/day; assay type: functional
[4] = Oral bioavailability in mouse (dose 10 mg/kg); assay type: ADME, organism-based; details: in vivo
[5] = Solubility of compound in 0.1 M HCl; assay type: physicochemical; details: read-out: S
[6] = Area under curve value in monkey at a dose of 5 mg/kg; assay type: ADME, organism-based; parameters: dose 5 mg/kg; details: cercopithecidae, in vivo
Mus musculus [7] = test: Increase in life span of M5076 murine ovarian sarcoma bearing mice at a dose of 100 mg/kg/day; assay type: functional
A549 = test: Activity against human lung cancer with mutated beta-tubulin (A549-T2415); assay type: functional, cell-based
[8] = Partition coefficient of compound; assay type: physicochemical; details: octanol/water
[9] = Oral bioavailability in dog (dose 5 mg/kg); assay type: ADME, organism-based, Canis lupus familiaris; details: in vivo
[10] = Solubility of compound in pH 7.4 phosphate buffer; assay type: physicochemical
[11] = Half life period in dog after 5 mg/kg dose; assay type: ADME, organism-based, Canis lupus familiaris; parameters: dose 5 mg/kg; details: in vivo
[12] = pKa of the compound; assay type: physicochemical
[13] = (§1) Inhibition of bovine brain microtubule polymerization; assay type: functional, Bos taurus
[14] = Half life period in mouse after 10 mg/kg dose; assay type: ADME, organism-based; parameters: dose 10 mg/kg; details: in vivo
HCT-15 [15] = test: Inhibitory concentration of compound against of microtubule […] in human HCT-15 colon carcinoma; assay type: functional, cell-based
[16] = Area under curve value in mouse at a dose of 10 mg/kg; assay type: ADME, organism-based; parameters: dose 10 mg/kg; details: in vivo
Mus musculus [17] = test: In vivo efficacy to delay 1 g volume of M5076 murine ovarian sarcoma formation in mice at a dose of 50 mg/Kg/day; assay type: functional
[18] = Oral bioavailability in rat (dose 5 mg/kg; assay type: ADME, organism-based; details: in vivo
[19] = Half life period in rat after 5 mg/kg dose; assay type: ADME, organism-based; parameters: dose 5 mg/kg; details: in vivo
[20] = Oral bioavailability in monkey (dose 5 mg/kg); assay type: ADME, organism-based; details: cercopithecidae, in vivo
Mus musculus [21] = test: In vivo efficacy to delay 1 g volume of M5076 murine ovarian sarcoma formation in mice at a dose of 100 mg/Kg/day; assay type: functional
[22] = Area under curve value in dog at a dose of 5 mg/kg; assay type: ADME, organism-based, Canis lupus familiaris; parameters: dose 5 mg/kg; details: in vivo
[23] = Area under curve value in rat at a dose of 5 mg/kg; assay type: ADME, organism-based; parameters: dose 5 mg/kg; details: in vivo
[24] = Oral bioavailability in rat (dose single 10 mg/kg); assay type: ADME, organism-based; details: in vivo
Tubulin beta chain [25] = molecular target: T1, Tubulin beta chain (Bos taurus, UniProt Q6B856); test: Activity towards binding at colchicine site of bovine brain tubulin
T1 sequence (Q6B856 whole entry): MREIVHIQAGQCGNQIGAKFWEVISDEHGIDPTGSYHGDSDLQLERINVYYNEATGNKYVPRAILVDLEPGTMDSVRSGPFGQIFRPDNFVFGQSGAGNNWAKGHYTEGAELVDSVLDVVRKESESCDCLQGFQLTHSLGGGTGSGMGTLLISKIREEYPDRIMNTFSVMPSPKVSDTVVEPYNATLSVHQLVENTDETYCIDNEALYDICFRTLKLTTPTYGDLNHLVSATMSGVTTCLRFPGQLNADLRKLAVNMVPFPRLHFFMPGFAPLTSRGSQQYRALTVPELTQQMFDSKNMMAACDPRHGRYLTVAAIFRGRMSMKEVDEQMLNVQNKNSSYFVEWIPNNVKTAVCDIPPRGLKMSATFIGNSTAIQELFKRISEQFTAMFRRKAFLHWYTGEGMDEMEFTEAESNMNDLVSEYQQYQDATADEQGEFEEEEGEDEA

Bos taurus = species: Bos taurus; test: as §1; assay type: functional
[26] = Half life period in mouse after 10 mg/Kg dose; assay type: ADME, organism-based; details: in vivo
[27] = Half life period in rat after 5 mg/Kg dose; assay type: ADME, organism-based; details: in vivo
Tubulin beta chain [28] = molecular target: T1, Tubulin beta chain; test: Binding constant at colchicine site of bovine brain tubulin

IC50 (NCI-H460): 1500 nM
IC50 (HCT-15 [1]): 660 nM
SMILES: COc1cc(C2CN=C(c3cc4ccccc4n3C)O2)cc(OC)c1OC (centres undefined)

IC50 (NCI-H460): 1200 nM
IC50 (HCT-15 [1]): 1300 nM
SMILES: COc1cc(C2CN=C(c3ccc4c(c3)nc(C)n4C)O2)cc(OC)c1OC (centres undefined)

SMILES: COc1cc([C@H]2CN=C(c3ccc4c(ccn4C)c3)O2)cc(OC)c1OC
half-life [2]: 1.3 h
ILS at 50 mg/kg/day (Mus musculus [3]): 139%
bioavailability [4]: 15.1%
solubility [5]: 1270 µg/mL (≈ 3470 µM)
AUC [6]: 1750 ng·h/mL
ILS at 100 mg/kg/day (Mus musculus [7]): 206%
IC50 (A549): 6.3 nM
logD [8]: 3.94
bioavailability [9]: 6.5%
solubility [10]: 0.7 µg/mL (≈ 1.91 µM)
half-life [11]: 3.3 h
pKa [12]: 5
IC50 [13]: 2300 nM
IC50 (NCI-H460): 6.2 nM
half-life [14]: 1.1 h
Concentration (HCT-15 [15]): 44 nM
AUC [16]: 5690 ng·h/mL
Mean tumor delay (Mus musculus [17]): 19 days
bioavailability [18]: 17.1%
half-life [19]: 2.1 h
bioavailability [20]: 18.6%
IC50 (HCT-15 [1]): 8.6 nM
Mean tumor delay (Mus musculus [21]): 28.4 days
AUC [22]: 160 ng·h/mL
AUC [23]: 7180 ng·h/mL

IC50 (NCI-H460): 150000 nM
IC50 (HCT-15 [1]): 15000 nM
SMILES: COc1cc(C2CN=C(c3cccc4ccn(C)c34)O2)cc(OC)c1OC (centres undefined)

IC50 (NCI-H460): 14 nM
IC50 (HCT-15 [1]): 16 nM
bioavailability [24]: 34.7%
SMILES: COc1cc(C2CN=C(c3ccc4c(ccn4C)c3)O2)cc(OC)c1OC (centres undefined)

IC50 (NCI-H460): > 100000 nM
IC50 (HCT-15 [1]): 1200 nM
SMILES: COc1cc(C2CN=C(c3ccc4[nH]c(O)nc4c3)O2)cc(OC)c1OC (centres undefined)

IC50 (NCI-H460): 82 nM
IC50 (HCT-15 [1]): 67 nM
bioavailability [24]: 0%
SMILES: COc1cc(C2CN=C(c3c[nH]c4ccccc34)O2)cc(OC)c1OC (centres undefined)

IC50 (NCI-H460): 420 nM
IC50 (HCT-15 [1]): 280 nM
bioavailability [24]: 0%
SMILES: COc1cc(C2CN=C(c3ccc4ccn(C)c4c3)O2)cc(OC)c1OC (centres undefined)

IC50 (Tubulin beta chain [25]): 3400 nM
SMILES: COc1cc(C2OC(c3ccc(N)c(C)c3)=NN2C(C)=O)cc(OC)c1OC (centres undefined)

IC50 (NCI-H460): 37000 nM
IC50 (HCT-15 [1]): 44000 nM
SMILES: COc1cc(C2CN=C(c3ccnc4ccccc34)O2)cc(OC)c1OC (centres undefined)

SMILES: COc1ccc(/C=C\c2cc(OC)c(OC)c(OC)c2)cc1O [COMBRETASTATIN A4]
IC50 (Bos taurus): 1600 nM

IC50 (NCI-H460): 350 nM
IC50 (HCT-15 [1]): 150 nM
bioavailability [24]: 40%
SMILES: COc1cc(C2CN=C(c3cc4ccccc4[nH]3)O2)cc(OC)c1OC (centres undefined)

IC50 (NCI-H460): 4200 nM
IC50 (HCT-15 [1]): 3800 nM
bioavailability [24]: 19.8%
SMILES: COc1cc(C2CN=C(c3ccc4c(ccn4CC(F)(F)F)c3)O2)cc(OC)c1OC (centres undefined)

IC50 (NCI-H460): 520 nM
IC50 (HCT-15 [1]): 520 nM
SMILES: COc1cc(C2CN=C(c3ccc4cc(C)cn4c3)O2)cc(OC)c1OC (centres undefined)

IC50 (NCI-H460): 8180 nM
IC50 (HCT-15 [1]): 16300 nM
SMILES: COc1cc(C2CN=C(c3ccc4c(ccn4S(C)(=O)=O)c3)O2)cc(OC)c1OC (centres undefined)

IC50 (NCI-H460): 100 nM
IC50 (HCT-15 [1]): 200 nM
bioavailability [24]: 38.1%
SMILES: COc1cc(C2CN=C(c3ccc4[nH]ccc4c3)O2)cc(OC)c1OC (centres undefined)

IC50 (NCI-H460): 87 nM
IC50 (HCT-15 [1]): 37 nM
bioavailability [24]: 2.5%
SMILES: COc1cc(C2CN=C(c3cccc4c3ccn4C)O2)cc(OC)c1OC (centres undefined)

half-life [2]: 1.4 h
bioavailability [4]: 21%
AUC [6]: 890 ng·h/mL
bioavailability [9]: 7%
half-life [11]: 2.9 h
IC50 [13]: 740000 nM
IC50 (NCI-H460): 460 nM
half-life [26]: 1.3 h
half-life [27]: 1.3 h
AUC [16]: 400 ng·h/mL
bioavailability [18]: 44%
bioavailability [20]: 16.2%
IC50 (HCT-15 [1]): 390 nM
AUC [22]: 330 ng·h/mL
AUC [23]: 3040 ng·h/mL
SMILES: COc1cc([C@@H]2CN=C(c3ccc4c(ccn4C)c3)O2)cc(OC)c1OC

IC50 (NCI-H460): 810 nM
IC50 (HCT-15 [1]): 510 nM
SMILES: COc1cc(C2CN=C(c3ccc4c(c3)CCN4C)O2)cc(OC)c1OC (centres undefined)

IC50 (NCI-H460): 100000 nM
IC50 (HCT-15 [1]): 28000 nM
SMILES: COc1cc(C2CN=C(c3ccc4cncn4c3)O2)cc(OC)c1OC (centres undefined)

IC50 [13]: 1000 nM
IC50 (NCI-H460): 3.4 nM
Ki (Tubulin beta chain [28]): > 100000 nM
IC50 (HCT-15 [1]): 43 nM
SMILES: CC[C@]1(O)C[C@@H]2CN(CCc3c([nH]c4ccccc34)[C@@](C(=O)OC)(c3cc4c(cc3OC)N(C)[C@H]3[C@@](O)(C(=O)OC)[C@H](OC(C)=O)[C@]5(CC)C=CCN6CC[C@]43[C@@H]65)C2)C1 [VINBLASTINE]

IC50 (NCI-H460): 470 nM
IC50 (HCT-15 [1]): 540 nM
bioavailability [24]: 0%
SMILES: COc1cc(C2CN=C(c3cccc4cc[nH]c34)O2)cc(OC)c1OC (centres undefined)

IC50 (NCI-H460): 57 nM
IC50 (HCT-15 [1]): 61 nM
bioavailability [24]: 0%
SMILES: COc1cc(C2CN=C(c3cccc4[nH]ccc34)O2)cc(OC)c1OC (centres undefined)

IC50 (NCI-H460): 210 nM
IC50 (HCT-15 [1]): 170 nM
SMILES: COc1cc(C2CN=C(c3ccc4c(c3)cc(C)n4C)O2)cc(OC)c1OC (centres undefined)

IC50 (NCI-H460): 3200 nM
IC50 (HCT-15 [1]): 2400 nM
SMILES: COc1cc(C2CN=C(c3ccc4ncccc4c3)O2)cc(OC)c1OC (centres undefined)

IC50 (NCI-H460): 270000 nM
IC50 (HCT-15 [1]): 160000 nM
SMILES: COc1cc(C2CN=C(c3cnc4ccccc4c3)O2)cc(OC)c1OC (centres undefined)

IC50 (NCI-H460): 680 nM
IC50 (HCT-15 [1]): 480 nM
bioavailability [24]: 34.3%
SMILES: COCn1ccc2cc(C3=NCC(c4cc(OC)c(OC)c(OC)c4)O3)ccc21 (centres undefined)

IC50 (NCI-H460): > 10 nM
SMILES: CC(=O)O[C@H]1C(=O)[C@@]2(C)[C@H]([C@H](OC(=O)c3ccccc3)[C@]3(O)C[C@H](OC(=O)[C@H](O)[C@@H](NC(=O)c4ccccc4)c4ccccc4)C(C)=C1C3(C)C)[C@]1(OC(C)=O)CO[C@@H]1C[C@@H]2O [PACLITAXEL]

SMILES: COc1cc2c(c(OC)c1OC)-c1ccc(OC)c(=O)cc1[C@@H](NC(C)=O)CC2 [COLCHICINE]
IC50 (NCI-H460): 46 nM
IC50 (HCT-15 [1]): 140 nM

IC50 (NCI-H460): 49 nM
IC50 (HCT-15 [1]): 70 nM
bioavailability [24]: 11.1%
SMILES: CCn1ccc2cc(C3=NCC(c4cc(OC)c(OC)c(OC)c4)O3)ccc21 (centres undefined)

IC50 (NCI-H460): 330 nM
IC50 (HCT-15 [1]): 120 nM
bioavailability [24]: 10.5%
SMILES: COc1cc(C2CN=C(c3ccc4cc[nH]c4c3)O2)cc(OC)c1OC (centres undefined)

IC50 (NCI-H460): 2900 nM
IC50 (HCT-15 [1]): 2900 nM
bioavailability [24]: 55.8%
SMILES: COc1cc(C2CN=C(c3ccc4c(ccn4C4CC4)c3)O2)cc(OC)c1OC (centres undefined)

IC50 (NCI-H460): 87 nM
IC50 (HCT-15 [1]): 37 nM
bioavailability [24]: 2.5%
SMILES: COc1cc(C2CN=C(c3cn(C)c4ccccc34)O2)cc(OC)c1OC (centres undefined)

IC50 (NCI-H460): 7100 nM
IC50 (HCT-15 [1]): 6400 nM
SMILES: COc1cc(C2CN=C(c3ccc4[nH]cnc4c3)O2)cc(OC)c1OC (centres undefined)

IC50 (NCI-H460): 16000 nM
IC50 (HCT-15 [1]): 40000 nM
SMILES: COc1cc(C2CN=C(c3ccc4nccn4c3)O2)cc(OC)c1OC (centres undefined)
